Data reported in US10100058B2, “Fused heterocyclic compounds as CaM kinase inhibitors” (Gilead Sciences, Inc., priority 2016, dated 2018).

target: recombinant CaMKIIδ (Homo sapiens (Human), UniProt Q13557); assay: CaMKIIδ biochemical assay (HTRF); settings: 10 pM CaMKIIδ, 110 nM calmodulin, 12 μM ATP, 1 hour; read-out: CAMKIID-HTRF-384V2 (IC50 - nM)
Experimental: CaMKIIδ Biochemical Assay
The biochemical activity of recombinant CaMKIIδ was measured by monitoring the phosphorylation of a target peptide using Homogenous Time Resolved Fluorescence (HTRF) technology from CisBio Bioassays.

| SMILES | IC50 [nM] |
| --- | --- |
| CCN(CC)[C@@H](C)CNC(=O)c1cc(-c2cnn3ccc(-c4cccs4)nc23)nc(N2CC[C@H]2CO)c1 [Example 268, N—((S)-2-(diethylamino)propyl)-2-((S)-2-(hydroxymethyl)azetidin-1-yl)-6-(5-(thiophen-2-yl)pyrazolo[1,5-a]pyrimidin-3-yl)isonicotinamide] | 0.06 |
| CCN(CC)[C@@H](C)CNC(=O)c1cc(-c2cnn3ccc(-c4cccs4)nc23)nc(N2CCC[C@@H]2C(N)=O)c1 [Example 269, 2-((R)-2-carbamoylpyrrolidin-1-yl)-N—((S)-2-(diethylamino)propyl)-6-(5-(thiophen-2-yl)pyrazolo[1,5-a]pyrimidin-3-yl)isonicotinamide] | 6.05 |
| CCN(CC)[C@@H](C)CNC(=O)c1cc(-c2cnn3ccc(-c4cccs4)nc23)nc(N2CCC[C@H]2C(N)=O)c1 [Example 270, 2-((S)-2-carbamoylpyrrolidin-1-yl)-N—((S)-2-(diethylamino)propyl)-6-(5-(thiophen-2-yl)pyrazolo[1,5-a]pyrimidin-3-yl)isonicotinamide] | 1.91 |
| CCN(CC)[C@@H](C)CNC(=O)c1cc(-c2cnn3ccc(-c4cccs4)nc23)nc(N2CCC[C@H]2CO)c1 [Example 271, N—((S)-2-(diethylamino)propyl)-2-((S)-2-(hydroxymethyl)pyrrolidin-1-yl)-6-(5-(thiophen-2-yl)pyrazolo[1,5-a]pyrimidin-3-yl)isonicotinamide] | 0.31 |
| CCN(CC)[C@@H](C)CNC(=O)c1cc(-c2cnn3ccc(-c4cccs4)nc23)nc(N2CCC[C@@H]2CO)c1 [Example 272, N—((S)-2-(diethylamino)propyl)-2-((R)-2-(hydroxymethyl)pyrrolidin-1-yl)-6-(5-(thiophen-2-yl)pyrazolo[1,5-a]pyrimidin-3-yl)isonicotinamide] | 0.14 |
| CCN(CC)[C@@H](C)CNC(=O)c1cc(-c2cnn3ccc(-c4cccs4)nc23)nc(N2CCC[C@@H]2COC)c1 [Example 273, N—((S)-2-(diethylamino)propyl)-2-((R)-2-(methoxymethyl)pyrrolidin-1-yl)-6-(5-(thiophen-2-yl)pyrazolo[1,5-a]pyrimidin-3-yl)isonicotinamide] | 1.43 |
| CCN(CC)[C@@H](C)CNC(=O)c1cc(-c2cnn3ccc(-c4cccs4)nc23)nc(N2CCC[C@H]2COC)c1 [Example 274, N—((S)-2-(diethylamino)propyl)-2-((S)-2-(methoxymethyl)pyrrolidin-1-yl)-6-(5-(thiophen-2-yl)pyrazolo[1,5-a]pyrimidin-3-yl)isonicotinamide] | 0.63 |
| CCN(CC)[C@@H](C)CNC(=O)c1cc(-c2cnn3ccc(-c4cccs4)nc23)nc(N2CC[C@H]2C(=O)NC)c1 [Example 275, N—((S)-2-(diethylamino)propyl)-2-((S)-2-(methylcarbamoyl)azetidin-1-yl)-6-(5-(thiophen-2-yl)pyrazolo[1,5-a]pyrimidin-3-yl)isonicotinamide] | 0.2 |
| CCNC(=O)[C@@H]1CCN1c1cc(C(=O)NC[C@H](C)N(CC)CC)cc(-c2cnn3ccc(-c4cccs4)nc23)n1 [Example 276, N—((S)-2-(diethylamino)propyl)-2-((S)-2-(ethylcarbamoyl)azetidin-1-yl)-6-(5-(thiophen-2-yl)pyrazolo[1,5-a]pyrimidin-3-yl)isonicotinamide] | 0.22 |
| CCN(CC)[C@@H](C)CNC(=O)c1cc(-c2cnn3ccc(-c4cccs4)nc23)nc(N2CC[C@H]2C(=O)NC2CC2)c1 [Example 277, 2-((S)-2-(cyclopropylcarbamoyl)azetidin-1-yl)-N—((S)-2-(diethylamino)propyl)-6-(5-(thiophen-2-yl)pyrazolo[1,5-a]pyrimidin-3-yl)isonicotinamide] | 0.51 |
| CCN(CC)[C@@H](C)CNC(=O)c1cc(-c2cnn3ccc(-c4cccs4)nc23)nc(N2CC[C@H]2C(=O)NCC2CC2)c1 [Example 278, 2-((S)-2-((cyclopropylmethyl)carbamoyl)azetidin-1-yl)-N—((S)-2-(diethylamino)propyl)-6-(5-(thiophen-2-yl)pyrazolo[1,5-a]pyrimidin-3-yl)isonicotinamide] | 0.41 |
| CCN(CC)[C@@H](C)CNC(=O)c1cc(-c2cnn3ccc(-c4cccs4)nc23)nc(N2CC[C@H]2C(=O)N(C)C)c1 [Example 279, N—((S)-2-(diethylamino)propyl)-2-((S)-2-(dimethylcarbamoyl)azetidin-1-yl)-6-(5-(thiophen-2-yl)pyrazolo[1,5-a]pyrimidin-3-yl)isonicotinamide] | 0.17 |
| CCN(CC)C(=O)[C@@H]1CCN1c1cc(C(=O)NC[C@H](C)N(CC)CC)cc(-c2cnn3ccc(-c4cccs4)nc23)n1 [Example 280, N—((S)-2-(diethylamino)propyl)-2-((S)-2-(diethylcarbamoyl)azetidin-1-yl)-6-(5-(thiophen-2-yl)pyrazolo[1,5-a]pyrimidin-3-yl)isonicotinamide] | 0.45 |
| CCN(CC)[C@@H](C)CNC(=O)c1cc(-c2cnn3ccc(-c4cccs4)nc23)nc(N2CC[C@H]2C(=O)NCCF)c1 [Example 281, N—((S)-2-(diethylamino)propyl)-2-((S)-2-((2-fluoroethyl)carbamoyl)azetidin-1-yl)-6-(5-(thiophen-2-yl)pyrazolo[1,5-a]pyrimidin-3-yl)isonicotinamide] | 0.46 |
| CCN(CC)[C@@H](C)CNC(=O)c1cc(-c2cnn3ccc(-c4cccs4)nc23)nc(N2CC[C@H]2C(=O)NCC(F)F)c1 [Example 282, N—((S)-2-(diethylamino)propyl)-2-((S)-2-((2,2-difluoroethyl)carbamoyl)azetidin-1-yl)-6-(5-(thiophen-2-yl)pyrazolo[1,5-a]pyrimidin-3-yl)isonicotinamide] | 0.47 |
| CCN(CC)[C@@H](C)CNC(=O)c1cc(-c2cnn3ccc(-c4cccs4)nc23)nc(N2CC[C@H]2C(=O)NCC(F)(F)F)c1 [Example 283, N—((S)-2-(diethylamino)propyl)-2-(5-(thiophen-2-yl)pyrazolo[1,5-a]pyrimidin-3-yl)-6-((S)-2-((2,2,2-trifluoroethyl)carbamoyl)azetidin-1-yl)isonicotinamide] | 1.37 |
| CCN(CC)[C@@H](C)CNC(=O)c1cc(-c2cnn3ccc(-c4cccs4)nc23)nc(N2CC[C@H]2C(=O)N2CC(F)C2)c1 [Example 284, N—((S)-2-(diethylamino)propyl)-2-((S)-2-(3-fluoroazetidine-1-carbonyl)azetidin-1-yl)-6-(5-(thiophen-2-yl)pyrazolo[1,5-a]pyrimidin-3-yl)isonicotinamide] | 0.18 |
| CCN(CC)[C@@H](C)CNC(=O)c1cc(-c2cnn3ccc(-c4cccs4)nc23)nc(N2CC[C@H]2C(=O)N2CC3CC3C2)c1 (stereo partly drawn) [Example 285, 2-((2S)-2-(3-azabicyclo[3.1.0]hexane-3-carbonyl)azetidin-1-yl)-N—((S)-2-(diethylamino)propyl)-6-(5-(thiophen-2-yl)pyrazolo[1,5-a]pyrimidin-3-yl)isonicotinamide] | 0.42 |
| CCN(CC)[C@@H](C)CNC(=O)c1cc(-c2cnn3ccc(-c4cccs4)nc23)nc(N2CC[C@H]2C(=O)N2CC(NS(C)(=O)=O)C2)c1 [Example 286, N—((S)-2-(diethylamino)propyl)-2-((S)-2-(3-(methylsulfonamido)azetidine-1-carbonyl)azetidin-1-yl)-6-(5-(thiophen-2-yl)pyrazolo[1,5-a]pyrimidin-3-yl)isonicotinamide] | 0.16 |
| CCN(CC)[C@@H](C)CNC(=O)c1cc(-c2cnn3ccc(-c4cccs4)nc23)nc(N2CC[C@H]2C(=O)N(C)OC)c1 [Example 287, N—((S)-2-(diethylamino)propyl)-2-((S)-2-(methoxy(methyl)carbamoyl)azetidin-1-yl)-6-(5-(thiophen-2-yl)pyrazolo[1,5-a]pyrimidin-3-yl)isonicotinamide] | 0.33 |
| CCN(CC)[C@@H](C)CNC(=O)c1cc(-c2cnn3ccc(-c4cccs4)nc23)nc(N2CC[C@H]2C(=O)N2CCCC2)c1 [Example 288, N—((S)-2-(diethylamino)propyl)-2-((S)-2-(pyrrolidine-1-carbonyl)azetidin-1-yl)-6-(5-(thiophen-2-yl)pyrazolo[1,5-a]pyrimidin-3-yl)isonicotinamide] | 0.29 |
| CCN(CC)[C@@H](C)CNC(=O)c1cc(-c2cnn3ccc(-c4cccs4)nc23)nc(N2CC[C@H]2C(=O)NOC)c1 [Example 289, N—((S)-2-(diethylamino)propyl)-2-((S)-2-(methoxycarbamoyl)azetidin-1-yl)-6-(5-(thiophen-2-yl)pyrazolo[1,5-a]pyrimidin-3-yl)isonicotinamide] | 0.65 |
| CCN(CC)[C@@H](C)CNC(=O)c1cc(-c2cnn3ccc(-c4cccs4)nc23)nc(N2CC[C@@H]2C(=O)NC)c1 [Example 290, N—((S)-2-(diethylamino)propyl)-2-((R)-2-(methylcarbamoyl)azetidin-1-yl)-6-(5-(thiophen-2-yl)pyrazolo[1,5-a]pyrimidin-3-yl)isonicotinamide] | 14.1 |
| CCN(CC)[C@@H](C)CNC(=O)c1cc(-c2cnn3ccc(-c4cccs4)nc23)nc(N2CC[C@H]2C(=O)Nc2nccs2)c1 [Example 291, N—((S)-2-(diethylamino)propyl)-2-((S)-2-(thiazol-2-ylcarbamoyl)azetidin-1-yl)-6-(5-(thiophen-2-yl)pyrazolo[1,5-a]pyrimidin-3-yl)isonicotinamide] | 3.55 |
| CCN(CC)[C@@H](C)CNC(=O)c1cc(-c2cnn3ccc(-c4cccs4)nc23)nc(N2CC[C@H]2C(=O)N2CC(C)(C)C2)c1 [Example 292, N—((S)-2-(diethylamino)propyl)-2-((S)-2-(3,3-dimethylazetidine-1-carbonyl)azetidin-1-yl)-6-(5-(thiophen-2-yl)pyrazolo[1,5-a]pyrimidin-3-yl)isonicotinamide] | 0.58 |
| CCN(CC)[C@@H](C)CNC(=O)c1cc(-c2cnn3ccc(-c4cccs4)nc23)nc(N2CC[C@H]2C(=O)N2CCOCC2)c1 [Example 293, N—((S)-2-(diethylamino)propyl)-2-((S)-2-(morpholine-4-carbonyl)azetidin-1-yl)-6-(5-(thiophen-2-yl)pyrazolo[1,5-a]pyrimidin-3-yl)isonicotinamide] | 0.16 |

same assay, conditions: potency against CamKIIδ acquired with in-house assays, reference for selectivity values; read-out: CamKIIδ potency (Table 1)

| SMILES | IC50 [nM] |
| --- | --- |
| CCN(CC)[C@@H](C)CNC(=O)c1cc(-c2cnn3ccc(-c4cccs4)nc23)nc(N2CC[C@H]2C(=O)NC)c1 [Example 275, N—((S)-2-(diethylamino)propyl)-2-((S)-2-(methylcarbamoyl)azetidin-1-yl)-6-(5-(thiophen-2-yl)pyrazolo[1,5-a]pyrimidin-3-yl)isonicotinamide] | 0.43 |
